{
  "source": "patent US5047244A",
  "about": "“Mucoadhesive carrier for delivery of therapeutical agent” (priority 1988, dated 1991)",
  "type_in_all_cases": "physicochemical",
  "key": {"[1]": {"assay": "In vitro therapeutic agent release (USP Dissolution Test Method II, 0.05M isotonic phosphate buffer pH 6.0 with 30 weight percent PEG 400)", "details": "for In vitro release of dehydroepiandrosterone: Example 12 carrier, 5 mg DHEA; for Therapeutic Agent Release Parameter, T, 20% / Therapeutic Agent Release Parameter, T, 50% / Therapeutic Agent Release Parameter, T, 75% / Therapeutic Agent Release Parameter, T, 90%: Example 7 carrier (Table VII), 20 mg agent, agent:PEG 8000 1:2; for In vitro release of 17 β-estradiol: Example 17 carrier (Table XIX, mannitol)", "method": "Therapeutic agent release studies were conducted using an Erweka dissolution test assembly in compliance with Dissolution Test Method II as described in The United States Pharmacopeia, 24th revision (USP XXIV). Five hundred milliliters of a 0.1M phosphate buffer dissolution fluid was maintained at about 37° C. (about 100° F.) and the […] was rotated at 50 revolutions per minute (rpm). At predetermined time points, samples of approximately 3 milliliters of the test medium were withdrawn from the flasks and immediately replaced with an equivalent volume of blank buffer. Analysis of the samples was performed by ultraviolet spectrophotometry. […] The time to achieve 20%, 50% and 80% by weight dissolution of the piroxicam was estimated from a linear plot of percent dissolved versus time.\nTherapeutic agent release testing was conducted by the USP Dissolution Test Method II. The dissolution medium chosen was 500 ml of a 0.05M isotonic phosphate buffer having a 6.0 pH with 30 weight percent PEG 400.\nAn equivalent of 20 mg of albuterol in a mucosal composition of a albuterol:PEG 8000 weight in a ratio of 1:2 was included in each carrier. […] Plots of weight percent therapeutic agent released versus time were constructed and the drug release parameter T (in hours) for a given weight and percent drug released was calculated from the plots."}, "[2]": {"assay": "In vitro therapeutic agent release (USP Dissolution Test Method II, 0.05M isotonic phosphate buffer pH 6.0 with 30 weight percent PEG 400)", "details": "for In vitro release of therapeutic agent: 20 mg piroxicam; for In vitro release of 17 β-estradiol: Example 17 carrier (Table XIX, mannitol)"}, "[3]": {"assay": "Saturation solubility in phosphate buffer", "details": "0.1m phosphate buffer, aqueous buffer"}},
  "data": [
    {"compound": "C[C@]12CC[C@H](O)CC1=CC[C@@H]1[C@@H]2CC[C@]2(C)C(=O)CC[C@@H]12", "note": "[dehydroepiandrosterone]", "values": [
      {"measurement": "In vitro release of dehydroepiandrosterone", "setting": "[1]; 6 hours", "result": 20, "unit": "weight percent"},
      {"measurement": "In vitro release of dehydroepiandrosterone", "setting": "[1]; 10.5 hours", "result": 30, "unit": "weight percent"},
      {"measurement": "In vitro release of dehydroepiandrosterone", "setting": "[1]; 13 hours", "result": 40, "unit": "weight percent"},
      {"measurement": "In vitro release of dehydroepiandrosterone", "setting": "[1]; 23 hours", "result": 50, "unit": "weight percent"}
    ]},
    {"compound": "CN1C(C(=O)Nc2ccccn2)=C(O)c2ccccc2S1(=O)=O", "note": "[piroxicam]", "values": [
      {"measurement": "In vitro release of therapeutic agent", "setting": "[2]; Example 9 carrier, three hours", "result": 13, "unit": "weight percent"},
      {"measurement": "In vitro release of therapeutic agent", "setting": "[2]; Example 9 carrier, two hours", "result": 9, "unit": "weight percent"},
      {"measurement": "Therapeutic agent remaining in the carrier", "setting": "[2]; Example 9 carrier, piroxicam, after 23 hours", "result": "36-47 weight percent"},
      {"measurement": "In vitro release of therapeutic agent", "setting": "[1]; Example 9 carrier, 20 mg piroxicam, 6 hours", "result": 24.1, "unit": "weight percent"},
      {"measurement": "In vitro release of therapeutic agent", "setting": "[1]; Example 9 carrier, 20 mg piroxicam, 23 hours", "result": 56, "unit": "weight percent"},
      {"measurement": "In vitro release of therapeutic agent", "setting": "[1]; Example 9 carrier, 20 mg piroxicam, one hour", "result": 5, "unit": "weight percent"},
      {"measurement": "Order of release", "setting": "[1]; Example 9 carrier, piroxicam", "result": "apparent zero order rate"},
      {"measurement": "solubility", "setting": "[3]", "result": "~7700", "unit": "µg/mL"}
    ]},
    {"compound": "CC(N)C(O)c1ccccc1", "note": "(stereo not drawn) [Phenylpropanolamine]", "values": [
      {"measurement": "Therapeutic Agent Release Parameter, T, 20%", "setting": "[1]", "result": 0.58, "unit": "h"},
      {"measurement": "Therapeutic Agent Release Parameter, T, 50%", "setting": "[1]", "result": 2.83, "unit": "h"},
      {"measurement": "Therapeutic Agent Release Parameter, T, 75%", "setting": "[1]", "result": 6.04, "unit": "h"},
      {"measurement": "Therapeutic Agent Release Parameter, T, 90%", "setting": "[1]", "result": 8.42, "unit": "h"}
    ]},
    {"compound": "C[C@]12CC[C@@H]3c4ccc(O)cc4CC[C@H]3[C@@H]1CC[C@@H]2O", "note": "[17 β-estradiol]", "values": [
      {"measurement": "Order of release", "setting": "[2]; Example 10 carrier, 17 β-estradiol", "result": "apparent zero order process"},
      {"measurement": "In vitro release of 17 β-estradiol", "setting": "[2]; 15 hours", "result": 17, "unit": "weight percent"},
      {"measurement": "In vitro release of 17 β-estradiol", "setting": "[2]; 20 hours", "result": 19.5, "unit": "weight percent"},
      {"measurement": "In vitro release of therapeutic agent", "setting": "[1]; Example 10 carrier, 17 β-estradiol, 1 hour", "result": 2.5, "unit": "weight percent"},
      {"measurement": "In vitro release of therapeutic agent", "setting": "[1]; Example 10 carrier, 17 β-estradiol, 2 hours", "result": 4, "unit": "weight percent"},
      {"measurement": "In vitro release of therapeutic agent", "setting": "[1]; Example 10 carrier, 17 β-estradiol, 5 hours", "result": 9.5, "unit": "weight percent"},
      {"measurement": "In vitro release of therapeutic agent", "setting": "[1]; Example 10 carrier, 17 β-estradiol, 24 hours", "result": 46.3, "unit": "weight percent"},
      {"measurement": "In vitro release of 17 β-estradiol", "setting": "[1]; 5 hours", "result": 9.5, "unit": "weight percent"},
      {"measurement": "In vitro release of 17 β-estradiol", "setting": "[1]; 10 hours", "result": 15, "unit": "weight percent"}
    ]},
    {"compound": "CC(C)(C)NCC(O)c1ccc(O)c(CO)c1", "note": "(stereo not drawn) [Albuterol]", "values": [
      {"measurement": "Therapeutic Agent Release Parameter, T, 20%", "setting": "[1]", "result": 0.58, "unit": "h"},
      {"measurement": "Therapeutic Agent Release Parameter, T, 50%", "setting": "[1]", "result": 3.16, "unit": "h"},
      {"measurement": "Therapeutic Agent Release Parameter, T, 75%", "setting": "[1]", "result": 5.67, "unit": "h"},
      {"measurement": "Therapeutic Agent Release Parameter, T, 90%", "setting": "[1]", "result": 6.83, "unit": "h"},
      {"measurement": "Time to release 20% by weight of albuterol", "setting": "[1]; Example 13 carrier (Table XV)", "result": "approximately 0.8 hr"},
      {"measurement": "Time to release 50% by weight of albuterol", "setting": "[1]; Example 13 carrier (Table XV)", "result": "~2.6", "unit": "h"},
      {"measurement": "Time to release 75% by weight of albuterol", "setting": "[1]; Example 13 carrier (Table XV)", "result": "~6", "unit": "h"},
      {"measurement": "Time to release 90% by weight of albuterol", "setting": "[1]; Example 13 carrier (Table XV)", "result": "~10.5", "unit": "h"},
      {"measurement": "Time to release 20% by weight of albuterol", "setting": "[1]; Example 14 carrier (Table XVI)", "result": "approximately 1 hr"},
      {"measurement": "Time to release 50% by weight of albuterol", "setting": "[1]; Example 14 carrier (Table XVI)", "result": "~3.5", "unit": "h"},
      {"measurement": "Time to release 75% by weight of albuterol", "setting": "[1]; Example 14 carrier (Table XVI)", "result": "~8", "unit": "h"},
      {"measurement": "Time to release 90% by weight of albuterol", "setting": "[1]; Example 14 carrier (Table XVI)", "result": "~15", "unit": "h"},
      {"measurement": "In vitro release of albuterol", "setting": "[1]; Example 15 carrier (Table XVII), 3 hours", "result": 22, "unit": "weight percent"},
      {"measurement": "In vitro release of albuterol", "setting": "[1]; Example 15 carrier (Table XVII), 7.5 hours", "result": 50, "unit": "weight percent"},
      {"measurement": "In vitro release of albuterol", "setting": "[1]; Example 15 carrier (Table XVII), 12 hours", "result": 75, "unit": "weight percent"},
      {"measurement": "In vitro release of albuterol", "setting": "[1]; Example 15 carrier (Table XVII), 18 hours", "result": 90, "unit": "weight percent"},
      {"measurement": "In vitro release of albuterol", "setting": "[1]; Example 16 carrier (Table XVIII), 2 hours", "result": 27, "unit": "weight percent"},
      {"measurement": "In vitro release of albuterol", "setting": "[1]; Example 16 carrier (Table XVIII), 5 hours", "result": 50, "unit": "weight percent"},
      {"measurement": "In vitro release of albuterol", "setting": "[1]; Example 16 carrier (Table XVIII), 10 hours", "result": 73, "unit": "weight percent"},
      {"measurement": "In vitro release of albuterol", "setting": "[1]; Example 16 carrier (Table XVIII), 19 hours", "result": 90, "unit": "weight percent"}
    ]}
  ]
}
